From article PMC8901636, “Preclinical studies of Flonoltinib Maleate, a novel JAK2/FLT3 inhibitor, in treatment of JAK2^V617F-induced myeloproliferative neoplasms” (Blood Cancer Journal, 2022)
Like-named read-outs stand apart in the source and are kept apart here.

Legend:
[1] = molecular target: TYK2 (Homo sapiens, UniProt P29597); assay: In vitro kinase assay
[2] = PK and tissue distribution after repeated oral administration in Ba/F3-EPOR-JAK2^V617F tumor-bearing mice; type: in vivo; conditions: BALB/c nude, mouse, oral, 30 mg/kg, repeated
[3] = brain, read-out: FM concentration, Brain
[4] = heart, read-out: FM concentration, Heart
[5] = intestine, read-out: FM concentration, Intestine
[6] = kidney, read-out: FM concentration, Kidney
[7] = liver, read-out: FM concentration, Liver
[8] = lung, read-out: FM concentration, Lung
[9] = muscle, read-out: FM concentration, Muscle
[10] = plasma, read-out: FM concentration, Plasma

Chain of TYK2 (P29597 whole entry): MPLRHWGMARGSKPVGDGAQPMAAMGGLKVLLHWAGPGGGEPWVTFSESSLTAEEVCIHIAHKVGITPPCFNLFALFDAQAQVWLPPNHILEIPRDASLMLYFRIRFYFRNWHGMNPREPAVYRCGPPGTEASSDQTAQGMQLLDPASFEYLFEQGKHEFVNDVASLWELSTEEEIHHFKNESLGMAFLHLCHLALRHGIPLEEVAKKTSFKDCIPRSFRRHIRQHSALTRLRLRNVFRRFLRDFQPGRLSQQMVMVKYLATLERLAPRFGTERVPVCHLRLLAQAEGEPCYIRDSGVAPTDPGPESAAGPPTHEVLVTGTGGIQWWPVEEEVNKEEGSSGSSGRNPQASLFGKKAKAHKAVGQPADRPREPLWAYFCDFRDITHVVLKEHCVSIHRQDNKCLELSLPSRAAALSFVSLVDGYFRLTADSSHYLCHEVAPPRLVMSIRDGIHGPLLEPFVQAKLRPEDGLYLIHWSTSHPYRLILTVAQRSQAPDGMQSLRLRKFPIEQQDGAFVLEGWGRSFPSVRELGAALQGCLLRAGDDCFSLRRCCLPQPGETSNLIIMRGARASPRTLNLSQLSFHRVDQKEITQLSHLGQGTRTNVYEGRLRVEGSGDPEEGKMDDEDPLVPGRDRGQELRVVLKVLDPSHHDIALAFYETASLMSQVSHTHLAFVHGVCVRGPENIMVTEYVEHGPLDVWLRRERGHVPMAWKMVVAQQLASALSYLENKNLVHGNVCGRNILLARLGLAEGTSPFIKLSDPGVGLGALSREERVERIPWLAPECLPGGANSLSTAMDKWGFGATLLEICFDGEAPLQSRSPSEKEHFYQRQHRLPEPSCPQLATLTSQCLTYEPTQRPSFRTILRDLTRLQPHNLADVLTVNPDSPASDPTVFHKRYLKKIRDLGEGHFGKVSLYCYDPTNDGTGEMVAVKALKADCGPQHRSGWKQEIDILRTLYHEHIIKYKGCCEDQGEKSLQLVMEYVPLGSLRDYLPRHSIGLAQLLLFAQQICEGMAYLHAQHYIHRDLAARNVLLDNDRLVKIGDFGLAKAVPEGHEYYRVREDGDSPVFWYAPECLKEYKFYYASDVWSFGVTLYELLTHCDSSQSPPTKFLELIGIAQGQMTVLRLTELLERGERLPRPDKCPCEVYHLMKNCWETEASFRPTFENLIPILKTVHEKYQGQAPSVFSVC

Compound `Cc1cnc(Nc2ccc(N3CCC(N(C)CCO)CC3)c(F)c2)nc1-c1cnn(C(C)C)c1` [FM, 2-((1-(2-fluoro-4-((4-(1-isopropyl-1H-pyrazol-4-yl)-5-methylpyrimidin-2-yl)amino)phenyl)piperidin-4-yl)(methyl)amino)ethan-1-ol] has an IC50 [1] of 65 nM, a concentration at 0 h [2, 3] of 6.3 ± 3.68 ng/g and a concentration at 0.5 h [2, 3] of 283 ± 93.8 ng/g. For the same compound, the concentration at 2 h [2, 3] was 369 ± 113 ng/g, the concentration at 4 h [2, 3] was 492 ± 754 ng/g and the concentration at 8 h [2, 3] was 47 ± 31.3 ng/g. The concentration at 12 h [2, 3] was 10.8 ± 4.65 ng/g, the concentration at 0 h [2, 4] was 7.06 ± 1.49 ng/g and the concentration at 0.5 h [2, 4] was 1890 ± 756 ng/g. For the same compound, the concentration at 2 h [2, 4] was 1320 ± 674 ng/g, the concentration at 4 h [2, 4] was 578 ± 356 ng/g and the concentration at 8 h [2, 4] was 357 ± 376 ng/g. It also gave a concentration at 12 h [2, 4] of 15.8 ± 11.3 ng/g, a concentration at 0 h [2, 5] of 21.4 ± 19.1 ng/g and a concentration at 0.5 h [2, 5] of 31200 ± 12600 ng/g. For the same compound, the concentration at 2 h [2, 5] was 4210 ± 1320 ng/g, the concentration at 4 h [2, 5] was 9610 ± 6020 ng/g and the concentration at 8 h [2, 5] was 1380 ± 1370 ng/g. The concentration at 12 h [2, 5] was 250 ± 337 ng/g, the concentration at 0 h [2, 6] was 16.6 ± 1.41 ng/g and the concentration at 0.5 h [2, 6] was 11800 ± 3010 ng/g. It also gave a concentration at 2 h [2, 6] of 7560 ± 1990 ng/g, a concentration at 4 h [2, 6] of 4640 ± 1860 ng/g and a concentration at 8 h [2, 6] of 1790 ± 1450 ng/g. The concentration at 12 h [2, 6] was 174 ± 121 ng/g, the concentration at 0 h [2, 7] was 12.9 ± 3.13 ng/g and the concentration at 0.5 h [2, 7] was 4360 ± 3900 ng/g. For the same compound, the concentration at 2 h [2, 7] was 6420 ± 1260 ng/g, the concentration at 4 h [2, 7] was 6660 ± 5810 ng/g and the concentration at 8 h [2, 7] was 1900 ± 1330 ng/g. For the same compound, the concentration at 12 h [2, 7] was 151 ± 116 ng/g, the concentration at 0 h [2, 8] was 18.5 ± 4 ng/g and the concentration at 0.5 h [2, 8] was 11400 ± 1780 ng/g. It also gave a concentration at 2 h [2, 8] of 7150 ± 1880 ng/g, a concentration at 4 h [2, 8] of 3890 ± 1470 ng/g and a concentration at 8 h [2, 8] of 1450 ± 1430 ng/g. The concentration at 12 h [2, 8] was 132 ± 76.7 ng/g, the concentration at 0 h [2, 9] was 18.6 ± 11.7 ng/g and the concentration at 0.5 h [2, 9] was 415 ± 435 ng/g. The concentration at 2 h [2, 9] was 275 ± 158 ng/g, the concentration at 4 h [2, 9] was 181 ± 120 ng/g and the concentration at 8 h [2, 9] was 85 ± 73.1 ng/g. It also gave a concentration at 12 h [2, 9] of 13.3 ± 6.38 ng/g, a concentration at 0 h [2, 10] of 5.6 ± 1.53 ng/mL and a concentration at 0.25 h ([2]; plasma, 0.25 h, read-out: FM concentration, Plasma) of 628 ± 144 ng/mL. It also gave a concentration at 0.5 h [2, 10] of 889 ± 238 ng/mL, a concentration at 1 h ([2]; plasma, 1 h, read-out: FM concentration, Plasma) of 1040 ± 375 ng/mL and a concentration at 2 h [2, 10] of 638 ± 168 ng/mL. The concentration at 4 h [2, 10] was 292 ± 101 ng/mL, the concentration at 8 h [2, 10] was 106 ± 84.1 ng/mL and the concentration at 12 h [2, 10] was 19.3 ± 12.9 ng/mL.
